Source: patent US5807535A, “Metal complexes of hydroxyaryl containing aminocarboxylic acid chelating agents” (Australian Nuclear Science & Technology Organisation, priority 1992, dated 1998)

Assays:
[1] = Complexation of (1) with 166Dy and 166Ho; type: physicochemical; conditions: 166Dy/166Ho, within 40 mins at RT
Method: Radiolabelling with of (1) with ^166 Dy and ^166 Ho and the serum stability of the complex formed has been investigated. A typical procedure involves dissolving (1) (2.6 10^-4 M) in 1.0 M NaOH (150 μl) and then adding saline (669 μl). Then equal volume of ligand mixture and the ^166 Dy/^166 Ho in 0.2 M NaAc (pH to 4.5) are mixed. The complexation is monitored by ITLC-SG.

[2] = Biodistribution of Copper-67 complex of (5); type: in vivo, Balb/c mice; conditions: for biodistribution L. Int. / biodistribution S. Int. / biodistribution blood / biodistribution bone / biodistribution brain / biodistribution heart / biodistribution kidney / biodistribution liver / biodistribution lung / biodistribution muscle / biodistribution pancreas / biodistribution skin / biodistribution spleen / biodistribution stomach / biodistribution tail / biodistribution urine: 67Cu, mice
Method: A typical procedure involved the dissolving Cu-67 20 μl of original stock in an acetate buffer (0.2 M; pH 4.5) to a total volume of 500 μl. To this solution was added 500 μl of the ligand (20 mg/ml) solution in acetate buffer. The mixture was then left to react at 37° C. for 20 minutes. ITLC confirmed the labelling was greater than >95%.
The biodistribution of the copper-67 complex of ligand (5) was evaluated in balb/c mice (5 animals per time point) at 1, 3, 5, 10, 30 minute time intervals.

[3] = Cu-67, over the 30 minute period

Compound: O=C(O)CN(CCN(CC(=O)O)CC(=O)Nc1ccccc1O)CC(=O)Nc1ccccc1O [Compound 1]
- complexation [1]: > 99%

Compound: Nc1ccc(O)c(NC(=O)CN(CCN(CC(=O)O)CC(=O)Nc2cc(N)ccc2O)CC(=O)O)c1 [Compound 5]
- biodistribution L. Int. ([2]; 1 min): 0.35 % Injected dose
- biodistribution S. Int. ([2]; 1 min): 0.50 % Injected dose
- biodistribution blood ([2]; 1 min): 5.86 % Injected dose
- biodistribution bone ([2]; 1 min): 5.46 % Injected dose
- biodistribution brain ([2]; 1 min): 0.23 % Injected dose
- biodistribution heart ([2]; 1 min): 0.27 % Injected dose
- biodistribution kidney ([2]; 1 min): 8.35 % Injected dose
- biodistribution liver ([2]; 1 min): 5.71 % Injected dose
- biodistribution lung ([2]; 1 min): 0.85 % Injected dose
- biodistribution muscle ([2]; 1 min): 13.69 % Injected dose
- biodistribution pancreas ([2]; 1 min): 0.20 % Injected dose
- biodistribution skin ([2]; 1 min): 9.61 % Injected dose
- biodistribution spleen ([2]; 1 min): 0.18 % Injected dose
- biodistribution stomach ([2]; 1 min): 0.52 % Injected dose
- biodistribution tail ([2]; 1 min): 8.27 % Injected dose
- biodistribution urine ([2]; 1 min): 0.35 % Injected dose
- biodistribution L. Int. ([2]; 3 min): 0.75 % Injected dose
- biodistribution S. Int. ([2]; 3 min): 1.10 % Injected dose
- biodistribution blood ([2]; 3 min): 4.76 % Injected dose
- biodistribution bone ([2]; 3 min): 3.35 % Injected dose
- biodistribution brain ([2]; 3 min): 0.22 % Injected dose
- biodistribution heart ([2]; 3 min): 0.28 % Injected dose
- biodistribution kidney ([2]; 3 min): 5.65 % Injected dose
- biodistribution liver ([2]; 3 min): 8.48 % Injected dose
- biodistribution lung ([2]; 3 min): 1.20 % Injected dose
- biodistribution muscle ([2]; 3 min): 18.00 % Injected dose
- biodistribution pancreas ([2]; 3 min): 0.11 % Injected dose
- biodistribution skin ([2]; 3 min): 19.21 % Injected dose
- biodistribution spleen ([2]; 3 min): 0.19 % Injected dose
- biodistribution stomach ([2]; 3 min): 0.93 % Injected dose
- biodistribution tail ([2]; 3 min): 5.19 % Injected dose
- biodistribution urine ([2]; 3 min): 1.98 % Injected dose
- biodistribution L. Int. ([2]; 5 min): 0.54 % Injected dose
- biodistribution S. Int. ([2]; 5 min): 1.08 % Injected dose
- biodistribution blood ([2]; 5 min): 4.05 % Injected dose
- biodistribution bone ([2]; 5 min): 2.74 % Injected dose
- biodistribution brain ([2]; 5 min): 0.23 % Injected dose
- biodistribution heart ([2]; 5 min): 0.19 % Injected dose
- biodistribution kidney ([2]; 5 min): 4.99 % Injected dose
- biodistribution liver ([2]; 5 min): 9.04 % Injected dose
- biodistribution lung ([2]; 5 min): 1.10 % Injected dose
- biodistribution muscle ([2]; 5 min): 11.95 % Injected dose
- biodistribution pancreas ([2]; 5 min): 0.12 % Injected dose
- biodistribution skin ([2]; 5 min): 16.23 % Injected dose
- biodistribution spleen ([2]; 5 min): 0.16 % Injected dose
- biodistribution stomach ([2]; 5 min): 0.87 % Injected dose
- biodistribution tail ([2]; 5 min): 5.36 % Injected dose
- biodistribution urine ([2]; 5 min): 3.72 % Injected dose
- biodistribution L. Int. ([2]; 10 min): 0.79 % Injected dose
- biodistribution S. Int. ([2]; 10 min): 0.90 % Injected dose
- biodistribution blood ([2]; 10 min): 2.33 % Injected dose
- biodistribution brain ([2]; 10 min): 0.19 % Injected dose
- biodistribution heart ([2]; 10 min): 0.18 % Injected dose
- biodistribution kidney ([2]; 10 min): 4.48 % Injected dose
- biodistribution liver ([2]; 10 min): 11.79 % Injected dose
- biodistribution lung ([2]; 10 min): 1.20 % Injected dose
- biodistribution muscle ([2]; 10 min): 8.38 % Injected dose
- biodistribution pancreas ([2]; 10 min): 0.34 % Injected dose
- biodistribution skin ([2]; 10 min): 16.46 % Injected dose
- biodistribution spleen ([2]; 10 min): 0.16 % Injected dose
- biodistribution stomach ([2]; 10 min): 0.80 % Injected dose
- biodistribution tail ([2]; 10 min): 3.45 % Injected dose
- biodistribution urine ([2]; 10 min): 4.71 % Injected dose
- biodistribution L. Int. ([2]; 30 min): 0.31 % Injected dose
- biodistribution S. Int. ([2]; 30 min): 0.71 % Injected dose
- biodistribution blood ([2]; 30 min): 2.12 % Injected dose
- biodistribution bone ([2]; 30 min): 2.05 % Injected dose
- biodistribution brain ([2]; 30 min): 0.54 % Injected dose
- biodistribution heart ([2]; 30 min): 0.20 % Injected dose
- biodistribution kidney ([2]; 30 min): 3.38 % Injected dose
- biodistribution liver ([2]; 30 min): 17.10 % Injected dose
- biodistribution lung ([2]; 30 min): 1.29 % Injected dose
- biodistribution muscle ([2]; 30 min): 7.45 % Injected dose
- biodistribution pancreas ([2]; 30 min): 0.34 % Injected dose
- biodistribution skin ([2]; 30 min): 14.14 % Injected dose
- biodistribution spleen ([2]; 30 min): 0.19 % Injected dose
- biodistribution stomach ([2]; 30 min): 1.22 % Injected dose
- biodistribution tail ([2]; 30 min): 1.51 % Injected dose
- biodistribution urine ([2]; 30 min): 1.33 % Injected dose
- clearance from the kidneys, blood and urine [2, 3]: clears from the kidneys, blood and urine over the 30 minute period
- uptake in the liver [2, 3]: active uptake of the complex in the liver
